# In patent US4575459A, “Toxoids of elastase of Pseudomonas aeruginosa origin” (Toho Yakuhin Kogyo Kabushiki Kaisha, priority 1984, dated 1986):
# “And” between values parts separate entries of the source, which are not always exact repeats. Identical values can stand only once.
# Legend:
# [1] = test system: Pseudomonas aeruginosa elastase; details: incubation of the reagent with the enzyme; Nishino and Powers, J. Biol. Chem. (1980); cited from earlier work
# [2] = test system: rabbits; assay: Antigenicity test on rabbits, Test A: passive hemagglutinative value test (PHA test); format: in vivo, rabbit; details: reciprocal of serum dilution; individual rabbits, 1 mg s.c. with Freund's incomplete adjuvant 3 to 4 times, blood two weeks after last inoculation
# Experimental: (§1) Method: Three rabbits, each having 2.5 Kg of a body weight, were subcutaneously inoculated with each 1 mg of Toxoid I together with Freund's incomplete adjuvant and the inoculation was repeated 3 to 4 times at an interval of 2 weeks. On the day of two weeks after the last inoculation, blood was collected from the rabbits and was availed for following Tests A, B and C. The same method as the preceeding was conducted employing Toxoid II.
# (§2) The values were determined according to a method described by one of the present inventors, Y. Homma, in The Japan J. Exp. Med., Vol. 45, No. 5, pages 361-365 (1975), and the values were expressed as a reciprocal number to a multiplied number of the dilution of sera.
# [3] = test system: rabbits; assay: Antigenicity test on rabbits, Test C: elastase-neutralizing activity test of sera; format: in vivo, rabbit; details: elastase activity neutralized by 1 ml of anti-serum; individual rabbits
# Experimental: as §1
# (§3) Sera of the tested rabbits were warmed at 56° C. for 30 minutes and 0.2 ml of the sera were added to 0.2 ml of elastase solution, to which normal saline solution was added up to a volume of 2 ml in total. The solution was left for 60 minutes at 37° C., then, 1 ml of 2% casein solution was added to 1 ml of the solution. The residual elastase activity was determined with the thus mixed solution.
# [4] = test system: Casein; assay: Proteinase activity on casein (Folin's method), specific activity in mPU; format: biochemical
# Experimental: In Examples 1 and 2, the term "mPU/ml protein of a specific activity" signifies the proteinase activity determined by the following procedure:
# Casein (2%, pH 7.4, 1 ml) is admixed with 1 ml of an appropriately diluted solution of an enzyme, and after a reaction at 40° C. for 10 minutes, 2.0 ml of a solution containing 0.1M trichloroacetic acid and 0.2M sodium acetate is immediately added for stopping a progress of the reaction. The mixture is kept at the same temperature for 20 minutes to precipitate unreacted casein completely and is filtered. 1 ml of the filtrate is subject to determination of tyrosine therein contained by the Folin's method. By the increase of 1γ of tyrosine per 1 minute, a proteinase activity of 1 mPU is to be indicated. 1 mPU×1,000 is equal to 1 PU.
# [5] = test system: rabbits; assay: Antigenicity test on rabbits, Test B: precipitation in agar-gel test; format: in vivo, rabbit; details: 22° C., 24 hours, dilution at which precipitation line first becomes observable, individual rabbits
# Experimental: as §1
# In 0.01M phosphate buffer-normal saline solution (pH 7.0) which contained 0.1% of sodium azide, agarose was dissolved to form a concentration of 1.5% by weight, and 10 ml of the solution were poured in a dish having 9 cm of a diameter and the solution was left to make the agar hard. Several holes were made on the hardened agar and antigens or antisera were separately poured into every hole and the agar was left at 22° C. for 24 hours long, then, the existence of a precipitation line was inspected. The concentration of antigens is expressed by a unit of μg/ml, wherein the numerator indicates a quantity of antigens and a denominator indicates the dilution volume which is required until a precipitation line will first becomes observable.
# [6] = test system: ddY mice; assay: PHA value on mice; format: in vivo, mouse; details: 50 μg with potassium alum three times, first and second collected bloods (just before and 14th day after third inoculation)
# Experimental: as §2
# (§4) To a solution of Toxoid I of this invention in a concentration of 0.5 mg/ml., an equal volume of 1% potassium alum solution was added. Each 0.2 ml of the solution, in which 50 μg of Toxoid I were contained, were inoculated into ddY mice of 4 weeks old respectively three times at an interval of 2 weeks. At just before and on the 14th day after the third inoculation, bloods were collected from each mouse and the values of PHA and elastase-neutralizing activity were inspected in the same manner as with Tests A and C in Experiment 1.
# [7] = Antigenic activity listed among the identified properties of the toxoids; details: listed property
# [8] = test system: ddY mice; assay: Elastase-neutralizing activity on mice; format: in vivo, mouse
# Experimental: as §3, §4
# [9] = Antigenic activity of formalin-treated elastase samples by precipitation line (Table 1); format: binding; details: quantity of antigen per dilution volume until a precipitation line first becomes visible; larger numeral = less potent
# Description: Note: In the above Table 1, the antigenic activity is expressed by a unit of μg/ml, wherein the numerator indicates the quantity of antigen and the denominator indicates the dilution volume required until a precipitation line first becomes visible.
Compound,effect on enzyme activity of elastase [1],PHA Value [2],Elastase-neutralizing Activity (mPU/ml) [3],"specific activity ([4]; casein 2%, pH 7.4, 40° C., 10 minutes) [mPU/mg protein]",Enzymatic activity ([4]; listed property),Antigen Concentration [5] [µg/mL],PHA Value [6],Antigenic activity [7],elastase-neutralizing activity ([8]; first collected blood (just before third inoculation)) [mPU/ml],elastase-neutralizing activity ([8]; second collected blood (14th day after third inoculation)) [mPU/ml],"Residual Proteinase Activity (%) ([4]; elastase samples treated with formalin (HCHO), Table 1)",Antigenic activity [9] [µg/mL]
"CC(C)C[C@@H](C(=O)N[C@@H](C)C(=O)NCC(N)=O)N(O)C(=O)CCl [Powers Reagent, chloroacetyl-N-hydroxy-L-leucyl-L-alanylglycinamide]",progressive loss of enzyme activity,,,,,,,,,,,
Toxoid I: toxoid prepared by inactivating Pseudomonas aeruginosa elastase with the Powers Reagent,,5120 and 2560,15 mPU/ml and 12 mPU/ml and 10 mPU/ml,0.06,Negative,15,640,Positive,1.52,1.83,,
"crystalline elastase: purified crystalline elastase obtained from Pseudomonas aeruginosa, raw material of the toxoids",,,,,,15,,,,,100,30
